# Values quoted from earlier work in patent US20260191834A1, “PHARMACEUTICAL COMBINATION FOR THE TREATMENT OF MULTIPLE MYELOMA, MONOCLONAL GAMMOPATHY OF UNDETERMINED SIGNIFICANCE, AND SMOLDERING MULTIPLE MYELOMA” (priority 2022, published 2026).
structure (smiles),measurement,setting,value
"CC[C@H]1OC(=O)[C@H](C)[C@@H](O[C@H]2C[C@@](C)(OC)[C@@H](O)[C@H](C)O2)[C@H](C)[C@@H](O[C@@H]2O[C@H](C)C[C@H](N(C)C)[C@H]2O)[C@](C)(OC)C[C@@H](C)C(=O)[C@H](C)[C@@H](O)[C@]1(C)O [clarithromycin, Clarithromycin]",efficacy for treating multiple myeloma,as an add-on to chemotherapies,reported and confirmed
same,efficacy for Multiple Myeloma,given alone as a single treatment,no efficacy
